Test system: 648629-189-R-J1-PDC spheroids with HUVEC/MSC, viability
Experiment: Anticancer human tumor 648629-189-R-J1-PDC patient-derived bladder carcinoma cell line growth inhibition [PI3K]
Settings: for IC50: curve of first compound; for viability, T/C: stronger effect = lower value
From the text: Combinatorial screen of targeted agents with the PI3K inhibitors inavolisib, alpelisib, duvelisib, and copanlisib in multi-cell type tumor spheroids
A high-throughput screen of multi-cell type tumor spheroids was designed to identify active combinations of targeted small molecules and PI3K pathway inhibitors. Complex spheroids include a stromal component modeled by human endothelial cells (HUVEC) and fibroblasts modeled by human mesenchymal stem cells (MSCs). The concentration ranges selected for each drug and investigational agent were based upon clinically achievable concentrations if the clinical Cmax of the agent was known.
Compounds. The drugs and investigational agents: inavolisib (NSC800729), alpelisib (NSC765974), duvelisib (NSC772469), copanlisib (NSC816437), ipatasertib (NSC767898), afuresertib (NSC778305), talazoparib (NSC767125), sapanisertib (NSC764658), selumetinib (NSC741078), tovorafenib (DAY101, NSC766906), vemurafenib (NSC761431), ravoxertinib (NSC781343), sotorasib (NSC818433), MRTX1133 (NSC 836407), abemaciclib (NSC 768073), palbociclib (NSC758247), venetoclax (NSC 766270), SY5609 (NSC837396), enzalutamide (NSC755605), and darolutamide (NSC825331), were obtained from the National Cancer Institute (NCI) Developmental Therapeutics Program Chemical Repository. The FDA-approved anticancer drug set is available from the NCI Developmental Therapeutics Program. […] The stock solutions were prepared in dimethyl sulfoxide (DMSO, Sigma-Aldrich, St. Louis, MO, cat. D2650) at 800-fold the tested concentration and stored at -70 degrees C prior to their use. All drugs and investigational agents were tested over a range starting from a high concentration at or near the clinical Cmax and decreasing in half-log increments. If the clinical Cmax for an agent had not been determined, the highest concentration tested was 10 microM.
Cell Culture. All cells were maintained in an incubator at 37 degrees C and 5% CO2 with 95% humidity. The PDC lines were cultured according to standard operating procedures established by the NCI PDMR (https://pdmr.cancer.gov/sops/default.htm). All PDCs were thawed and cultured in Matrigel-coated flasks prepared with a working solution of 1X Ham's F-12 nutrient mix, without supplementation (Invitrogen, Waltham, MA, cat. 11765054), 100 U/mL penicillin-streptomycin (Invitrogen, cat. 15140122), and 2.5% Matrigel (Corning Inc., Corning, NY, cat. 354248) for the first three passages. The 354836-022-R-J1-PDC, 475296-252-R-J1-PDC, and 997726-040-R-J2-PDC lines were cultured in 6A media, which includes advanced DMEM/F-12 (Thermo Fisher Scientific, cat. 12634028), 10 mM HEPES (Thermo Fisher Scientific, cat. 15630080), 1X GlutaMAX supplement (Thermo Fisher Scientific, cat. 35050061), 0.1 mg/mL primocin (InvivoGen, San Diego, CA, cat. ant-pm-2), 10% defined fetal bovine serum, heat inactivated (HyClone Laboratories Inc., Logan, UT, cat. SH30070.03HI), 50% L-WRN conditioned media (ATCC, cat. CRL-3276), 1.25 mM N-Acetyl-L-cysteine (Sigma-Aldrich, cat. A9165), 10 mM nicotinamide (Sigma-Aldrich, cat. N0636), 1X B-27 supplement (Thermo Fisher Scientific, cat. 17504044), 1X N-2 supplement (Thermo Fisher Scientific, cat. 17502048), and 10 microM Y-27632 dihydrochloride (Tocris Bioscience, Bristol, United Kingdom, cat. 1254). The 624824-186-R-J2-PDC line was cultured in 6C/Colon 1B media, which includes all 6A media components plus 50 ng/mL human EGF recombinant protein (Thermo Fisher Scientific, cat. PHG0311). […]
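Further: spheroids exposed to agents for seven days before reading.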
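Wherever viability, T/C is given: percent of vehicle control luminescence where 100% = DMSO treated spheroids.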

Cn1cnc2c(F)c(Nc3ccc(Br)cc3Cl)c(C(=O)NOCCO)cc21 + COc1c(OCCCN2CCOCC2)ccc2c3n(c(=NC(=O)c4cnc(N)nc4)nc12)CCN3
IC50 (second compound 0.00316 µM): > 3 µM | IC50 (second compound 0.01 µM): > 3 µM | IC50 (second compound 0.0316 µM): > 3 µM | IC50 (second compound 0.1 µM): > 3 µM | IC50 (second compound 0.316 µM): < 0.00949 µM | IC50 (second compound 1 µM): < 0.00949 µM | viability, T/C (second compound 0.00316 µM, first compound 0.00949 µM): 121% | viability, T/C (second compound 0.00316 µM, first compound 0.03 µM): 82.1% | viability, T/C (second compound 0.00316 µM, first compound 0.0949 µM): 101% | viability, T/C (second compound 0.00316 µM, first compound 0.3 µM): 83.6% | viability, T/C (second compound 0.00316 µM, first compound 0.949 µM): 96.6% | viability, T/C (second compound 0.00316 µM, first compound 3 µM): 92.3% | viability, T/C (second compound 0.01 µM, first compound 0.00949 µM): 103% | viability, T/C (second compound 0.01 µM, first compound 0.03 µM): 90.2% | viability, T/C (second compound 0.01 µM, first compound 0.0949 µM): 99.2% | viability, T/C (second compound 0.01 µM, first compound 0.3 µM): 89.3% | viability, T/C (second compound 0.01 µM, first compound 0.949 µM): 90.5% | viability, T/C (second compound 0.01 µM, first compound 3 µM): 92.7% | viability, T/C (second compound 0.0316 µM, first compound 0.00949 µM): 90% | viability, T/C (second compound 0.0316 µM, first compound 0.03 µM): 93.8% | viability, T/C (second compound 0.0316 µM, first compound 0.0949 µM): 102% | viability, T/C (second compound 0.0316 µM, first compound 0.3 µM): 87% | viability, T/C (second compound 0.0316 µM, first compound 0.949 µM): 80.8% | viability, T/C (second compound 0.0316 µM, first compound 3 µM): 78.6% | viability, T/C (second compound 0.1 µM, first compound 0.00949 µM): 62.4% | viability, T/C (second compound 0.1 µM, first compound 0.03 µM): 59.3% | viability, T/C (second compound 0.1 µM, first compound 0.0949 µM): 59% | viability, T/C (second compound 0.1 µM, first compound 0.3 µM): 73.5% | viability, T/C (second compound 0.1 µM, first compound 0.949 µM): 64.4% | viability, T/C (second compound 0.1 µM, first compound 3 µM): 59.4% | viability, T/C (second compound 0.316 µM, first compound 0.00949 µM): 20.6% | viability, T/C (second compound 0.316 µM, first compound 0.03 µM): 25.5% | viability, T/C (second compound 0.316 µM, first compound 0.0949 µM): 24.7% | viability, T/C (second compound 0.316 µM, first compound 0.3 µM): 28% | viability, T/C (second compound 0.316 µM, first compound 0.949 µM): 33.7% | viability, T/C (second compound 0.316 µM, first compound 3 µM): 32.3% | viability, T/C (second compound 1 µM, first compound 0.00949 µM): 3.08% | viability, T/C (second compound 1 µM, first compound 0.03 µM): 3.98% | viability, T/C (second compound 1 µM, first compound 0.0949 µM): 2.82% | viability, T/C (second compound 1 µM, first compound 0.3 µM): 3.55% | viability, T/C (second compound 1 µM, first compound 0.949 µM): 2.39% | viability, T/C (second compound 1 µM, first compound 3 µM): 1.24%

CNC(=O)c1ccc(N2C(=S)N(c3ccc(C#N)c(C(F)(F)F)c3)C(=O)C2(C)C)cc1F + COc1c(OCCCN2CCOCC2)ccc2c3n(c(=NC(=O)c4cnc(N)nc4)nc12)CCN3
IC50 (second compound 0.00316 µM): > 10 µM | IC50 (second compound 0.01 µM): > 10 µM | IC50 (second compound 0.0316 µM): > 10 µM | IC50 (second compound 0.1 µM): > 10 µM | IC50 (second compound 0.316 µM): < 0.0316 µM | IC50 (second compound 1 µM): < 0.0316 µM | viability, T/C (second compound 0.00316 µM, first compound 0.0316 µM): 107% | viability, T/C (second compound 0.00316 µM, first compound 0.1 µM): 103% | viability, T/C (second compound 0.00316 µM, first compound 0.316 µM): 113% | viability, T/C (second compound 0.00316 µM, first compound 1 µM): 116% | viability, T/C (second compound 0.00316 µM, first compound 3.16 µM): 121% | viability, T/C (second compound 0.00316 µM, first compound 10 µM): 97.7% | viability, T/C (second compound 0.01 µM, first compound 0.0316 µM): 117% | viability, T/C (second compound 0.01 µM, first compound 0.1 µM): 108% | viability, T/C (second compound 0.01 µM, first compound 0.316 µM): 102% | viability, T/C (second compound 0.01 µM, first compound 1 µM): 103% | viability, T/C (second compound 0.01 µM, first compound 3.16 µM): 107% | viability, T/C (second compound 0.01 µM, first compound 10 µM): 81.1% | viability, T/C (second compound 0.0316 µM, first compound 0.0316 µM): 93.7% | viability, T/C (second compound 0.0316 µM, first compound 0.1 µM): 92.2% | viability, T/C (second compound 0.0316 µM, first compound 0.316 µM): 114% | viability, T/C (second compound 0.0316 µM, first compound 1 µM): 101% | viability, T/C (second compound 0.0316 µM, first compound 3.16 µM): 98.6% | viability, T/C (second compound 0.0316 µM, first compound 10 µM): 84% | viability, T/C (second compound 0.1 µM, first compound 0.0316 µM): 66% | viability, T/C (second compound 0.1 µM, first compound 0.1 µM): 73.9% | viability, T/C (second compound 0.1 µM, first compound 0.316 µM): 72.8% | viability, T/C (second compound 0.1 µM, first compound 1 µM): 74.8% | viability, T/C (second compound 0.1 µM, first compound 3.16 µM): 62.9% | viability, T/C (second compound 0.1 µM, first compound 10 µM): 67.5% | viability, T/C (second compound 0.316 µM, first compound 0.0316 µM): 20.7% | viability, T/C (second compound 0.316 µM, first compound 0.1 µM): 26.3% | viability, T/C (second compound 0.316 µM, first compound 0.316 µM): 28.3% | viability, T/C (second compound 0.316 µM, first compound 1 µM): 25.5% | viability, T/C (second compound 0.316 µM, first compound 3.16 µM): 24.8% | viability, T/C (second compound 0.316 µM, first compound 10 µM): 25.9% | viability, T/C (second compound 1 µM, first compound 0.0316 µM): 4.11% | viability, T/C (second compound 1 µM, first compound 0.1 µM): 3.82% | viability, T/C (second compound 1 µM, first compound 0.316 µM): 3.77% | viability, T/C (second compound 1 µM, first compound 1 µM): 4.37% | viability, T/C (second compound 1 µM, first compound 3.16 µM): 3.8% | viability, T/C (second compound 1 µM, first compound 10 µM): 3.34%

— PubChem BioAssay AID1963974 (Molecular Pharmacology Branch, DTP, NCI, 2024)
